According to patent publication US20170304223A1, “METHOD OF TREATING PROSTATE CANCER USING A PKC INHIBITOR” (priority 2016, published 2017):

Legend:
PKC-τ = target: T1, PKC-τ (Homo sapiens, UniProt P41743); assay: PKC-iota levels in prostate cells by Western blot after treatment; assay type: cell-based; settings: 72 hours after treatment
T1 construct: endogenous in cells; host or cells: DU-145
T1 sequence (P41743 1-596): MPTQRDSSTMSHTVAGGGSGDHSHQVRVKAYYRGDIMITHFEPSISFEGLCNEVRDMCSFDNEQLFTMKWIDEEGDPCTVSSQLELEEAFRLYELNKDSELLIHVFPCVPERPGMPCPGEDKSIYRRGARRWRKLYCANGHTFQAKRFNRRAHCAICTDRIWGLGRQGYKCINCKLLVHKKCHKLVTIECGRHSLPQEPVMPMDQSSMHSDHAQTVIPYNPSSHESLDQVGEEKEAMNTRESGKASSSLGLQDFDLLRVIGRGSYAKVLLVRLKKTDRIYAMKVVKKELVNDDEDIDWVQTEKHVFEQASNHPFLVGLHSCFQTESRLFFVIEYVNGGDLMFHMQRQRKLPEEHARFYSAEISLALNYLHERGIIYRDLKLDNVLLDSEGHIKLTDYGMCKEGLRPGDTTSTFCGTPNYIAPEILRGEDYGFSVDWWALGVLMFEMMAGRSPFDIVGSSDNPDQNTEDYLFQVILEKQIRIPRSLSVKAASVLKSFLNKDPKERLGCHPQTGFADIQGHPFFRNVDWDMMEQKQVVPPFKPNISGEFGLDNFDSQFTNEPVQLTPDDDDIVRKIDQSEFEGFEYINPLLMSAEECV
Method: Protein was harvested from cultured cells using Lysis Buffer purchased from Cell Signaling. Protein content was measured according to the Bradford method. Tissue extracts containing equal amounts of protein in each lane were run on SDS-PAGE gels. The tissue lysates (50 μg) were Western blotted for PKC-τ (10 μg, 1:2500 dilution): and PKC-ζ (5 μg, 1:4000 dilution) and β-actin (10 μg, 1:3000 dilution).
(§1) Western blots were developed on the Protein Simple Flour Chem M. Accompanied by the Alpha view software for analysis.
ICA-1 was used as a PKC-iota inhibitor. […] The cells were counted before and after the treatments and a statistical analysis was performed. Following cell counting, the cells were lysed and levels of PKC-iota and PKC-zeta were measured by Western blotting and immunoprecipitation.

RWPE cells = assay: Cell proliferation assay / cell counting, RWPE cells; assay type: cell-based, human; settings: 10 μM, non-malignant cells (RWPE)
Method: (§2) RWPE epithelial cells and DU-145 human prostate carcinoma cells were purchased from American Type Culture Collection (ATCC). PC-3 cells were acquired from Moffit Cancer center. The cells were grown as a monolayer in a T25 tissue culture flask with 5 mL of growth medium and maintained in a 37 C incubator with 5% CO2. The E-MEM and F-12 growth media were obtained from ATCC. The medium was supplemented with 10% fetal bovine serum (FBS) and a mix of the antibiotics Penicillin (10,000 IU) and Streptomycin (10,000 μg/ml) in a 100× concentration which was purchased from Corning.
(§3) RWPE, DU 145 and PC-3 cells were cultured in a T25 cell culture flasks. 20,000 cells were seeded into each. […] The treatment was repeated over the course of 72 hours and samples were taken at 24 hour intervals.
(§4) RWPE, DU 145, and PC-3 cells were cultured in a T25 cell culture flasks. At assigned intervals the cells were trypsonized and put into a 1.5 mL microcentrifuge tube. Cells were inverted gently to keep the solution homogeneous and then the Cell Scepter by Millipore was used to measure cell numbers.

DU-145 cells = assay: Cell proliferation assay / cell counting, DU-145 cells; assay type: cell-based, human
Method: as §2, §3, §4

PC-3 cells = assay: Cell proliferation assay / cell counting, PC-3 cells; assay type: cell-based, human
Method: as §2, §3, §4

Cytochrome C = assay: Apoptotic marker Cytochrome C by Western blot; assay type: cell-based, human
Survivin = assay: Apoptotic marker Survivin by Western blot; assay type: cell-based, human
NF-kB = NF-kB translocation after TNF-α exposure (cell subfractionation); assay type: cell-based, human; settings: DU-145 and PC-3 cells (cell line not specified), 10 μM, vs untreated control
Method: 20,000 cells were seeded into each.
as §1

[1] = DU-145 cells, 72 hours of treatment
[2] = RWPE cells, 72 hours of treatment

## NC(=O)c1ncn([C@H]2C[C@@H](COP(=O)(O)O)[C@H](O)[C@@H]2O)c1N [ICA-1]
PKC-τ; DU-145 cells
  average decrease in PKC-τ: 46%
PKC-τ; PC-3 cells
  decrease in PKC-τ: 40%
RWPE cells
  decrease in cell population (dose-response curve): not having a significant decrease
DU-145 cells; 10 μM, malignant cells (DU-145)
  decrease in cell population (dose-response curve): statistically significant decrease in population
DU-145 cells; DU-145 cells
  reduction in cell growth compared to untreated cells: 19%
PC-3 cells
  average decline of cell population: 18%
Cytochrome C; [1]
  increase in Cytochrome C: ~3 fold
Cytochrome C; PC-3 cells
  increase in Cytochrome C: 2 fold
Cytochrome C; [2]
  increase of Cytochrome C: 8%
Survivin; [1]
  reduction of Survivin (in words): reduction of Survivin by half
Survivin; PC-3 cells
  decrease in Survivin: 40%
Survivin; [2]
  decrease in Survivin: 10%
NF-kB
  decrease of nucleic NFkB: 5 fold
